From patent publication US12630523B2, “Isoquinoline derivatives for use as antiviral and antitumour agents” (priority 2021, dated 2026)
Values joined by “and” are separate entries in the source; they are usually repeats but may differ in a detail not shown here. Equal entries are not always repeated. Where two headings read alike, the source gives them in different places.

Experiments:
[1] = test system: CaSki cells; assay: Cell cycle analysis using Propidium-Iodide staining (flow cytometry); type: cell-based, human; settings: 48 hour incubation; for A*/5 μM (apoptosis as measured from total SUB G1 content) / A*/10 μM (apoptosis as measured from total SUB G1 content): no treatment 15.0; for G2/5 μM / G1/5 μM / G2/10 μM / G1/10 μM: cell cycle distribution; for G2/5 μM / G2/10 μM: no treatment 15.6; for G1/5 μM / G1/10 μM: no treatment 53.3
Experimental: Propidium-Iodide (PI) DNA staining is performed to facilitate cell cycle analysis. For PI-DNA staining, fixed cells and eventually antibody-stained cells are resuspended in 450 μl of PBS (per 10^6 cells) and incubated with 100 μg/ml RNase (stock 1 mg/ml, in PBS) for 10 minutes at 37° C. Cells are then incubated with 5 μg/106 cells of PI (stock 1 mg/ml in PBS) for 10 minutes at room temperature. Samples are stored at 4° C. until CF analysis.
CaSki cells were incubated with various compounds and cell cycle distribution of the cells was assessed using Propidium-Iodide staining.
In order to analyze the cytostatic versus the cytotoxic effect of OC compounds, cell cycle profiles were analyzed in vitro after 48 hour incubations using Flow Cytometry as a read out. For this a cell cycle analysis from selected OC E7 degrader compounds was conducted in CaSki cells. Using 6 well plates, 1.5×10^5 cells were seeded for each well and grown over night at 37° C. 5% CO2. For analysis of the cell cycle behavior, cells were analyzed in the presence of propidium Iodide (PI^−) by flow cytometry (FC). Briefly, cells were detached by trypsin digestion, all supernatants were included in the analysis, and fixed with 70% ice cold ethanol and stored at 4° C. until FC analysis using PI^− staining (1 mg/ml). At least 7000 events were acquired for each sample.

[2] = test system: human cervical carcinoma (CaSki) xenograft; assay: CaSki high risk HPV16 human cervical carcinoma xenograft model; type: in vivo, nude mice; settings: for % TGI (Day 44): percentage tumor growth inhibition with respect to controls / Δ% on Day 44 / Δ% Body Weight: OC246/OC974 os 2 mg/kg/day; for % TGI (Day 44): percentage tumor growth inhibition with respect to controls: 4 × week; for % TGI (Day 44): percentage tumor growth inhibition with respect to controls / Tumor Volume Day 44 (mm^3 ± SD): 3 cycles, CDDP i.v. q7d × 3, 6 mg/kg; for Δ% on Day 44 / Δ% Body Weight: CDDP i.v. 6 mg/kg; for Δ% on Day 44: control 100; for Tumor Volume Day 44 (mm^3 ± SD): OC246/OC974 os daily 4 × week, 2 mg/kg/day, control 1099 ± 503; for Δ% Body Weight: between first day of treatment (day 20) and Day 44, control +4.9
Experimental: The aim of this study was to assess the in vivo efficacy of OC246 and OC974 on a human cervical carcinoma (CaSki) xenograft model in nude mice. OC246 and OC974 were administered oral once daily for four times with three days off, for three cycles at 2 mg/kg/dose. Cisplatin (CDDP) was used as a reference compound with three weekly intravenous (q7dx3) administrations of 6 mg/kg.

[3] = test system: CaSki (ATCC CRM-CRL-1550); assay: Monolayer assay using Sulphorhodamine B (SRB) staining, CaSki; type: cell-based; settings: Homo sapiens, Ca-Ski
Outline: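 After 24 h recovery, 10.000–30.000 cells/well treated 72 h with compound at 9 concentrations. Cells TCA-fixed (10% final) 1 h at 4 °C, SRB-stained, optical density read at 540 nm; EC50 for growth inhibition from non-linear regression of log concentration versus % T/C.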

[4] = test system: SARS-CoV-2 isolate BetaCov/Belgium/GHB-03021/2020; assay: microbe, parasite or virus in culture; type: cell-based; settings: for inhibition at 1.25 µM: Severe acute respiratory syndrome coronavirus 2, 1.25 μM (non-toxic compound concentration), n4; for SARS-CoV-2 antiviral activity, mono treatment or combination (FIG. 10): Vero E6 cells, VSP035 10-0.625 μM
[5] = test system: cell signaling molecules (4E-BP1, p70 S6 kinase, Akt, PTPN14, p53, PD-L1); assay: Western blot of cell signaling molecules in CaSki cells

SMILES | A*/5 μM (apoptosis as measured from total SUB G1 content) [1] [%] | A*/10 μM (apoptosis as measured from total SUB G1 content) [1] | G2/5 μM [1] [%] | G1/5 μM [1] [%] | G2/10 μM [1] [%] | G1/10 μM [1] [%] | % TGI (Day 44): percentage tumor growth inhibition with respect to controls [2] [%] | Δ% on Day 44 [2] [%] | Tumor Volume Day 44 (mm^3 ± SD) [2] [mm^3] | Δ% Body Weight [2] | EC50 ([3]; read-out: EC50 mean [nM]) [nM] | inhibition at 1.25 µM [4] [%] | also measured
Cc1ccc(CN2C(=O)c3ccccc3[C@H](C(=O)Nc3cccc(N4CCN(C)CC4)c3)[C@@H]2c2ccc(C(F)(F)F)cc2)cc1 [OC246, N-[3-(4-methylpiperazin-1-yl)phenyl]-2-[(4-methylphenyl)methyl]-1-oxo-3-[4-(trifluoromethyl)phenyl]-1,2,3,4-tetrahydroisoquinoline-4-carboxamide] | 19.6 | 89.4% | 15.7 | 48.0 | 0.2 | 1.5 | 66.6 | 27 | 371 ± 153 | +5.5% | 3050 | 45.7 | EC50 ([3]; 72 h): 2890 nM; signaling of phosphor-Akt S473 ([5]; 10 μM, 4 hours, CaSki and U2OS cells): does not inhibit
CN1CCC(CN2C(=O)c3ccccc3[C@H](C(=O)Nc3cccc(N4CCN(C)CC4)c3)[C@H]2c2ccc(C(F)(F)F)cc2)CC1 [VSP035, (3S,4S)-N-[3-(4-methylpiperazin-1-yl)phenyl]-2-[(1-methylpiperidin-4-yl)methyl]-1-oxo-3-[4-(trifluoromethyl)phenyl]-1,2,3,4-tetrahydroisoquinoline-4-carboxamide] | – | – | – | – | – | – | – | – | – | – | 3750 | 72.4 | SARS-CoV-2 antiviral activity, mono treatment or combination (FIG. 10) [4]: moderate; SARS-CoV-2 antiviral activity, mono treatment or combination (FIG. 10) ([4]; listed as VS035): Robust antiviral activities; PDL-1 regulation ([5]; CaSki, 4 and 8 hours, dose dependent): valid pdl-1 destabilizer; p(S473)Akt, Sting and Irf-3 levels ([5]; CaSki, 10 μm VSP035 time course): do not appear to be influenced; Ptpn14 and p53 levels ([5]; CaSki, 10 μm, 24 h time point): increase in Ptpn14 and p53; Phosphorylation of 4E-BP1 on Ser65 and the p70S6 kinase on Thr389 ([5]; CaSki, 6 h, order 10 μM VSP035, Torin 1, Torin 2, rapamycin, 5 μM VSP035, CGP 57380): inhibited or strongly reduced; 4E-BP1 phosphorylation state ([5]; CaSki, 6 h treatment): dose dependent hypophosphorylation of 4E-BP1
CN1CCC(CN2C(=O)c3ccccc3[C@@H](C(=O)Nc3cccc(N4CCN(C)CC4)c3)[C@@H]2c2ccc(C(F)(F)F)cc2)CC1 (racemic) [OC974, (3R,4R)- and (3S,4S)-N-[3-(4-methylpiperazin-1-yl)phenyl]-2-[(1-methylpiperidin-4-yl)methyl]-1-oxo-3-[4-(trifluoromethyl)phenyl]-3,4-dihydroisoquinoline-4-carboxamide] | 19.5 | 82.9% and 81.8% | 9.9 | 49.6 | 0.8 | 8.7 | 63.9 | 23 | 307 ± 171 | +1.1% | 1550 | 54.3 | –
